Experimental data reported in US20230036854A1, “HETEROCYCLIC SPIRO-COMPOUNDS AS AM2 RECEPTOR INHIBITORS” (THE UNIVERSITY OF SHEFFIELD, priority 2018, published 2023).
Where no end group is shown, it is not given here.

Target: T1, AM2 receptor (1321N1 cells transfected with CALCRL+RAMP3) (Homo sapiens, UniProt O60896+Q16602)
T1 construct: host or cells: 1321N1 cells
Test: AM2 receptor inhibition, LANCE cAMP agonist-antagonist competition assay
Type: cell-based
Settings: inhibition of AM induced cAMP activation, read-out: AM2 D2 protocol: pIC50 (converted)
Outline: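 cAMP was quantified by LANCE TR-FRET after an EC50 challenge with adrenomedullin (15 min, room temperature) in CALCRL+RAMP3-transfected 1321N1 cells (2500/well) that had first been exposed to compound for 30 min. Buffer was pH 7.4 HBSS with HEPES and BSA. Forskolin defined 100% stimulation and vehicle 0%.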

T1 sequence (Q16602 23-461): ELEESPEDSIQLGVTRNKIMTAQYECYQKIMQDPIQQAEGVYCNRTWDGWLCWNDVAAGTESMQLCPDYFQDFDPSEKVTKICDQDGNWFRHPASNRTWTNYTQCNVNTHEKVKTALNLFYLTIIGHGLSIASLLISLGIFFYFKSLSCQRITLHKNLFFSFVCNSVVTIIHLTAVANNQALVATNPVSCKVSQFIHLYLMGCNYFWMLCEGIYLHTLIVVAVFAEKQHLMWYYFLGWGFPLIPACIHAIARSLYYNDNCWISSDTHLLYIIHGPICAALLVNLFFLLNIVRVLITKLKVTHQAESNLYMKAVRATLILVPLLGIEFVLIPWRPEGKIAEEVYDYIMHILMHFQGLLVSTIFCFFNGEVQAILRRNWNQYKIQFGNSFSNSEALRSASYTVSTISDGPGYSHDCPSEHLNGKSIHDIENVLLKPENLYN
T1 sequence (O60896 24-148): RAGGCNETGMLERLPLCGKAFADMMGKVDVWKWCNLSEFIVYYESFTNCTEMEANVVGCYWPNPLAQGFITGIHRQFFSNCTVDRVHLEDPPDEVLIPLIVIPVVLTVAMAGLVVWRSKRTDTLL

| Molecule | IC50 |
| --- | --- |
| CCC1(C(=O)N(CC(=O)Nc2ccc3c(c2)C[C@@]2(C3)C(=O)Nc3ncccc32)Cc2ccccc2CNC(C)C)CCN(C(C)=O)CC1 [Example 141, (R)-1-Acetyl-4-ethyl-N-(2-((isopropylamino)methyl)benzyl)-N-(2-oxo-2-((2′-oxo-1,1′,2′,3-tetrahydrospiro[indene-2,3′-pyrrolo[2,3-b]pyridin]-5-yl)amino)ethyl)piperidine-4-carboxamide] | 102 nM |
| CNCc1ccccc1CN(CC(=O)Nc1ccc2c(c1)C[C@@]1(C2)C(=O)Nc2ncccc21)C(=O)C1(C)CN(C(C)=O)C1 [Example 144, (R)-1-Acetyl-3-methyl-N-(2-((methylamino)methyl)benzyl)-N-(2-oxo-2-((2′-oxo-1,1′,2′,3-tetrahydrospiro[indene-2,3′-pyrrolo[2,3-b]pyridin]-5-yl)amino)ethyl)azetidine-3-carboxamide] | 75.9 nM |
| CNCc1ccccc1CN(CC(=O)Nc1ccc2c(c1)C[C@@]1(C2)C(=O)Nc2ncccc21)C(=O)C1(C)CCCNC1 (stereo partly drawn) [Example 146, 3-Methyl-N-(2-((methylamino)methyl)benzyl)-N-(2-oxo-2-(((R)-2′-oxo-1,1′,2′,3-tetrahydrospiro[indene-2,3′-pyrrolo[2,3-b]pyridin]-5-yl)amino)ethyl)piperidine-3-carboxamide] | 229 nM |
| CCC1(C(=O)N(CC(=O)Nc2ccc3c(c2)C[C@@]2(C3)C(=O)Nc3ncccc32)Cc2ccccc2CNC)CCS(=O)(=O)CC1 [Example 147, (R)-4-Ethyl-N-(2-((methylamino)methyl)benzyl)-N-(2-oxo-2-((2′-oxo-1,1′,2′,3-tetrahydrospiro[indene-2,3′-pyrrolo[2,3-b]pyridin]-5-yl)amino)ethyl)tetrahydro-2H-thiopyran-4-carboxamide 1,1-dioxide] | 10.5 nM |
| CNCc1ccccc1CN(CC(=O)Nc1ccc2c(c1)C[C@@]1(C2)C(=O)Nc2ncccc21)C(=O)C1(C)CC2CCC(C1)N2C(C)=O (stereo partly drawn) [Example 148, 8-Acetyl-3-methyl-N-(2-((methylamino)methyl)benzyl)-N-(2-oxo-2-(((R)-2′-oxo-1,1′,2′,3-tetrahydrospiro[indene-2,3′-pyrrolo[2,3-b]pyridin]-5-yl)amino)ethyl)-8-azabicyclo[3.2.1]octane-3-carboxamide] | 2.24 nM |

Next, values leading:

| IC50 | Molecule |
| --- | --- |
| 40.7 nM | CNCc1ccccc1CN(CC(=O)Nc1ccc2c(c1)C[C@@]1(C2)C(=O)Nc2ncccc21)C(=O)C1(C)CCNC1 (stereo partly drawn) [Example 142, 3-Methyl-N-(2-((methylamino)methyl)benzyl)-N-(2-oxo-2-(((R)-2′-oxo-1,1′,2′,3-tetrahydrospiro[indene-2,3′-pyrrolo[2,3-b]pyridin]-5-yl)amino)ethyl)pyrrolidine-3-carboxamide] |
| 51.3 nM | CNCc1ccccc1CN(CC(=O)Nc1ccc2c(c1)C[C@@]1(C2)C(=O)Nc2ncccc21)C(=O)C1(C)CCN(C(C)=O)C1 (stereo partly drawn) [Example 143, Acetyl-3-methyl-N-(2-((methylamino)methyl)benzyl)-N-(2-oxo-2-(((R)-2′-oxo-1,1′,2′,3-tetrahydrospiro[indene-2,3′-pyrrolo[2,3-b]pyridin]-5-yl)amino)ethyl)pyrrolidine-3-carboxamide] |
| 302 nM | CNCc1ccccc1CN(CC(=O)Nc1ccc2c(c1)C[C@@]1(C2)C(=O)Nc2ncccc21)C(=O)C1(C)CCCN(C(C)=O)C1 (stereo partly drawn) [Example 145, 1-Acetyl-3-methyl-N-(2-((methylamino)methyl)benzyl)-N-(2-oxo-2-(((R)-2′-oxo-1,1′,2′,3-tetrahydrospiro[indene-2,3′-pyrrolo[2,3-b]pyridin]-5-yl)amino)ethyl)piperidine-3-carboxamide] |
| 2.88 nM | CNCc1ccccc1CN(CC(=O)Nc1ccc2c(c1)C[C@@]1(C2)C(=O)Nc2ncccc21)C(=O)C1(C)CCCN(C(C)=O)CC1 (stereo partly drawn) [Example 149, 1-Acetyl-4-methyl-N-(2-((methylamino)methyl)benzyl)-N-(2-oxo-2-(((R)-2′-oxo-1,1′,2′,3-tetrahydrospiro[indene-2,3′-pyrrolo[2,3-b]pyridin]-5-yl)amino)ethyl)azepane-4-carboxamide] |

Test system: human pancreatic cancer cells
Test: not given
Settings: local injection directly into tumours, pancreatic cancer model; cited from earlier work

| Molecule | tumour size compared to controls |
| --- | --- |
| AM22-52: "the AM peptide antagonist (AM22-52)"; "peptide and antibody AM2 receptor inhibitors are known such as AM22-52" (TVQKLAHQIYQFTDKDKDNVAPRSKISPQGY; ends and bridges not checked; UniProt P35318 116-146, looked up, fragment) | reduced tumour size significantly |
